Data set [1] can be described thus: Optical and photophysical properties of metallotexaphyrins (laser flash photolysis, fluorescence, singlet oxygen luminescence). Format: physicochemical. The arrangement: tt (triplet lifetime): unit not given here. Particulars: CH3 OH. The text has this:
Finally, several complexes containing paramagnetic metal ions (e.g. Mn^II, Sm^III, and Eu^III, structures 5c -7c) were investigated.
Comparison of the initial intensity with that obtained using tetrakis (4-hydroxyphenyl)porphyrin (THPP) as photosensitizer^3b under identical conditions allowed calculation of the quantum yields for production of singlet oxygen (^.phi. 1.cndot.2).

The subject of the next data set is herpes simplex (HSV-1). Kind of data set: Preliminary in vitro HSV-1 infectivity study in 10% human serum. Format: cell-based. Particulars: irradiation at 767 nm. From the text:
(§1) In summary, the new metallotexaphrin complexes discussed here show three important optical properties which make them unique among existing porphyrin-like macrocycles. They absorb strongly in a physiologically important region (i.e. 730-770 nm), form long-lived triplet states in high yield, and act as efficient photosensitizers for the formation of singlet oxygen (see, e.g. FIG. 21).

For the next data set, the system named is lymphocyte. Put plainly: Preliminary in vitro lymphocyte mitogenic activity study in 10% human serum. The format is cell-based. As to conditions: irradiation at 767 nm.
Text: as §1

A further data set concerns HSV-1. Put plainly: Preliminary in vitro photo-killing of HSV-1 infectivity. Format: cell-based. From the text: (§2) Several preliminary in vitro biological studies have been carried out with the cadmium(II) complexes of the 18 and 22 π-electron texaphyrins 14D and 5D. […] This latter result, in particular, augurs well for the eventual use of these materials in prophylactic photodynamic anti-AIDS blood-treatment programs. The 2 log decrease in HSV-1 activity achieved with the texaphyrin systems studied to date is not yet sufficient to completely design a viable protocol: Both HPD and PII, as well as sapphyrin (6D) , reprepared by literature methods^70 provide about a 5 log decrease in viral activity under similar light fluence when irradiated at the appropriate lowest energy transition (630 and 690 nm, respectively). Although a mechanistic comparison with the incompletely characterized hematoporphyrin-derived systems is difficult, a direct structural correspondence exists between the tripyrroledimethine-derived cadmium(II) texaphyrin and free-base sapphyrin systems: The main difference is in overall charge on the photosensitizer. It may thus be that these two macrocycle types are bound to the virus envelope in a different manner; perhaps the sapphyrin "intercalates" into the lipid layer and the charged metallotexaphyrin sits on the surface of the membrane and as such could suffer from deleterious aggregations (which would lower singlet oxygen production).

The nature of data set [2]: Cytotoxicity in the absence of light. Format: cell-based. Particulars: preliminary.
Text: In addition, some preliminary toxicity and stability information will begin to emerge from these in vitro experiments.
The subject of another data set is lymphocytes. Kind of data set: Localization on lymphocytes by absorption and emission measurements. Format: cell-based.
Text: as §2

Data set [3] is described as follows: Stability in methanol/water or water (decomplexation, decomposition).
For data set [4] the following is noted: 1:1 methanol/water.
A short description of data set [5]: Imine hydrolysis half-life by pH.
Data set [6] in a line: Stability of free-base macrocycle. The format is physicochemical.
For data set [7], the system named is rapidly growing tissues including sarcomas and carcinomas. As to conditions: in vivo; cited from earlier work.
Data set [8] is described as follows: Stability to demetallation (sulfide, thiosulfate). The format is physicochemical. Particulars: aqueous Na2 S / excess sulfide anion. The text has this:
The above K1 and K2 (or K1 K2) values are predicated on the assumption that the cadmium complexes under discussion are stable with regards to demetallation and that the equilibria of equations 1 and 2 (or 3) pertain under the conditions of base binding. The first of these concerns is readily apparent: If demetallation occurs, then obviously one is not studying base binding! […] The second concern is particularly important within the context of quantitative work: If, for instance, the starting complex 3.cndot.NO3 is not rigorously five coordinate, then K1 (and perhaps K2 as well) would represent an axial ligand displacement reaction rather than a pure addition process as implied above. Control experiments indicate that the assumption of initial five coordination is reasonable: Independent titrations of 3A .cndot.NO3 with NH4 NO3 and H2 O indicate that only modest and monotonic changes in the chemical shift of the "meso" signals take place over the course of adding ≥50 equivalents of these potentially adventitious ligands.^40 This means that either "complete" binding occurs at 1:1 stoichiometry (essentially ruled out in the case of H2 O on the basis of analytical data), or that these species are poorly coordinating in CHCl3 so that five coordination pertains about cadmium; the latter interpretation appearing more likely.
Attempts to demetallate complex 3A .cndot.NO3 were made. In an effort to obtain the free sp^2 bridged ligand 2A, the above complex in chloroform was stirred for several hours in the presence of sodium sulfide and independently with sodium thiosulfate. […] In the case of sodium sulfide, this critical conclusion was further supported by FAB MS: Other than the starting cationic complex 3A, no evidence was obtained for any moderate to high molecular weight volatile products in the mass spectrum. […] The rate of this process, however, is strongly pH dependent, the half-life being, for instance, on the order of several hours in the presence of ca. 0.1N HCl.

The conditions of data set [9]: benzene, cited from earlier work.
Data set [10] relates to enveloped viruses (HSV-1, cytomegalovirus, measles virus, HIV-1). Particulars: previous studies; cited from earlier work.

Entries after “also recorded” stand apart in the source; their conditions may differ. Where two headings read alike, the source gives them in different places.

Take `CCC1=C(C)c2cnc3ccccc3ncc3nc(cc4[n-]c(cc1n2)c(CC)c4CC)C(CC)=C3C.O=[N+]([O-])[O-].[Cd+2]` [3C NO3]: in [1], the Emission gmax came out at 780 nm and the “S (= phi 1O2 / phi t)” value was 0.78. Also, the “tt (triplet lifetime)” value in [1] (deoxygenated) worked out at 55. The “Absorption gmax (Soret-type band)” value in data set [1] (first value (Soret)) stood at 417 nm. Further, the “Absorption gmax (Q-type band)” value in [1] (second value (Q-type)) was 759 nm. Moreover, the “Dt (triplet quantum yield)” value in data set [1] (±5%) turned out to be 0.88. Further, in data set [1] (±10%), the “D^1 O2 (singlet oxygen quantum yield)” value came out at 0.69 and the “Df (fluorescence quantum yield)” value is reported as 0.011. Also, the HSV-1 infectivity entry in the data set with herpes simplex (HSV-1) is recorded as “significant decrease”. In addition, the lymphocyte mitogenic activity result with lymphocyte is recorded as “significant decrease”.
Take `CCC1=C(C)c2cnc3ccccc3ncc3nc(cc4[nH]c(cc1n2)c(CC)c4CC)C(CC)=C3C` [5D]: the “photo-killing of HSV-1 infectivity” value in the data set with HSV-1 (20 J/cm^2 at lowest energy absorption (690 nm for 14D, 767 nm for 5D)) was “ca. 2 log”. In the data set on HSV-1 (dark), the dark antiviral activity result is “neither 5D nor 14D show any appreciable dark antiviral activity”. In addition, the general cytotoxicity result in [2] was “nor, fortunately, do they show much evidence of general cytotoxicity in the absence of light”. For the same molecule, in the data set on lymphocytes, the localization on lymphocytes result was “localize selectively on lymphocytes”.
Consider `CCc1c(CC)c2cc3nc(cc4[nH]c(c(C)c4CC)c4[nH]c(cc5nc(cc1[nH]2)C(CCC(=O)N(CCO)CCO)=C5C)c(CC)c4C)C(C)=C3CCC(=O)N(CCO)CCO` [6D, reference compound], for which the “decrease in viral activity” value in the data set with HSV-1 (similar light fluence, at lowest energy transition (630 and 690 nm, respectively)) is listed as about 5 log.
On to `CCC1=C(C)c2cnc3ccccc3ncc3nc(cc4[n-]c(cc1n2)c(CC)c4CC)C(CC)=C3C.[In+3]` [In^3+ complex of texaphyrin], for which the “hydrolytic stability (in words)” value in data set [3] is “kinetically and hydrolytically stable”. Besides, in data set [3] (1:1 methanol-water), the “half-lives for decomplexation and/or ligand decomposition” value is reported as “exceed 3 weeks”.
As for `CCC1=C(C)c2cnc3ccccc3ncc3nc(cc4[n-]c(cc1n2)c(CC)c4CC)C(CC)=C3C.[Y+3]` [Y^3+ complex of texaphyrin], the “half-lives for decomplexation and/or ligand decomposition” value in data set [4] is “exceed 3 weeks”.
Turning to `CCC1=C(C)c2cnc3ccccc3ncc3nc(cc4[n-]c(cc1n2)c(CC)c4CC)C(CC)=C3C.[Cd+2]` [cadmium(II) complex of 5D], in data set [2], the general cytotoxicity result is given as “not appreciable cytotoxic”.
`CCC1=C(C)c2cnc3ccccc3ncc3nc(cc4[n-]c(cc1n2)c(CC)c4CC)C(CC)=C3C.[Cd+2]` [complex 2B]: the “half-life for imine hydrolysis” value is recorded as “several hours” in [5] (pH 2) and over 30 days in [5] (pH 7).
For `CCC1=C(C)C2=[N+]3C1=Cc1c(CC)c(CC)c4[n]1[Gd-2]315[N+](=C2)c2cc(C)c(C)cc2[N+]1=CC1=[N+]5C(=C4)C(CC)=C1C.[OH-].[OH-]` [complex 7B], in data set [4], the half-life result is on record as “over 5 weeks” and the “half-life for decomplexation and/or decomposition” value is at least 100 days. Also, the “bleaching of the Soret and Q-type bands” value in data set [4] (336 h, 35 µM) was “less than 10%”. Further, the “half-life for imine hydrolysis” value (pH 2) is “several hours”. Also, the “half-life for imine hydrolysis” value (pH 7) is over 30 days.
As to `CCC1=C(C)c2cnc3ccccc3ncc3nc(cc4[nH]c(cc1n2)c(CC)c4CC)C(CC)=C3C` [compound 2, 4,5,9,24-tetraethyl-10,23-dimethyl-13,20,25,26,27-pentaazapentacyclo [20.2.1.1^3,6.1^8,11.0^14,19] heptacosa-1,3,5,7,9,11(27), 12,14,16,18,20,22 (25),23-tridecaene], the “stability of free-base relative to compound 1” value in [6] is recorded as “undergoes decomposition far more slowly than compound 1”.
Take `CC1=C(CCC(=O)O)c2cc3[nH]c(cc4nc(cc5[nH]c(cc1n2)c(C)c5C(C)O)C(C)=C4C(C)O)c(C)c3CCC(=O)O` (centres unmarked) [hematoporphyrin]: in data set [7], the “localization in rapidly growing tissues” value is “localize selectively in rapidly growing tissues including sarcomas and carcinomas”.
For the molecule “cadmium tetraphenyl porphyrin [CdTPP, reference compound]”, the demetallation by sulfide entry in [8] was “serves to demetallate CdTPP; also recorded: leads to cation loss and precipitation of CdS”. The Kd in data set [9] (29.9°, read-out: K1 (single pyridine axial ligand) (converted)) was about 370 µM. Also, the “formation of bisligated species” value in [9] (pyridine-containing) was “no evidence for the formation of a bisligated CdTPP-(pyr)2”.
For the molecule dihematoporphyrin ether [DHE], the inactivation of viruses entry in data set [10] is “only those viruses studied which are enveloped or possess a membraneous coat are inactivated”.

The values above are taken from patent publication US5587463A, “Texaphyrin macrocycles and metal complexes thereof” (Board of Regents, The University of Texas System, priority 1994, dated 1996).
